The compounds below were run against EXON 20 Insertion(NPG) Ba/F3 Cell (Homo sapiens, UniProt P00533, INS772GNP, cells depend on it) (assay: Measurement of cancer cell growth inhibitory effect (MTT assay)). Conditions: Ba/F3 cells expressing EGFR with NPG added at D770_N771, 72 hours treatment, read at 595 nm, read-out: EXON 20 Insertion(NPG) Ba/F3 Cell(IC50).
Assay type: cell-based, Murine
Text: Since there is no commercially available lung cancer cell line with EGFR insertion mutation, a method of inserting 3 to 4 amino acids at each site using site direct mutagenesis in a wild type EGFR expression vector was attempted. In the present invention, first, a vector with three amino acids of NPG added to the D770_N771 site with the highest frequency was used, and Ba/F3 cell line was used for expression of these genes.
When the oncogenic mutant EGFR is expressed, dependence on the mutant EGFR for cell growth and apoptosis occurs without IL-3. Therefore, substances that show effective inhibition of mutant EGFR suppress cell growth and induce apoptosis, so the anticancer effect of cells was analyzed through MTT assay.
1×10^4 cells of the previously constructed stable cells were put into a 96 well plate and incubated overnight, and then the compound of Example was dose dependently treated. After 72 hours, MTT reagent was added, and after 3 hours stop buffer (10% SDS) was added. After 24 hours of incubation, the results were analyzed by reading at 595 nm. […] As a control drug, Mobocertinib was used.

EXON 20 Insertion(NPG) Ba/F3 Cell, sequence (P00533 with tags, fused parts or gaps INS772GNP): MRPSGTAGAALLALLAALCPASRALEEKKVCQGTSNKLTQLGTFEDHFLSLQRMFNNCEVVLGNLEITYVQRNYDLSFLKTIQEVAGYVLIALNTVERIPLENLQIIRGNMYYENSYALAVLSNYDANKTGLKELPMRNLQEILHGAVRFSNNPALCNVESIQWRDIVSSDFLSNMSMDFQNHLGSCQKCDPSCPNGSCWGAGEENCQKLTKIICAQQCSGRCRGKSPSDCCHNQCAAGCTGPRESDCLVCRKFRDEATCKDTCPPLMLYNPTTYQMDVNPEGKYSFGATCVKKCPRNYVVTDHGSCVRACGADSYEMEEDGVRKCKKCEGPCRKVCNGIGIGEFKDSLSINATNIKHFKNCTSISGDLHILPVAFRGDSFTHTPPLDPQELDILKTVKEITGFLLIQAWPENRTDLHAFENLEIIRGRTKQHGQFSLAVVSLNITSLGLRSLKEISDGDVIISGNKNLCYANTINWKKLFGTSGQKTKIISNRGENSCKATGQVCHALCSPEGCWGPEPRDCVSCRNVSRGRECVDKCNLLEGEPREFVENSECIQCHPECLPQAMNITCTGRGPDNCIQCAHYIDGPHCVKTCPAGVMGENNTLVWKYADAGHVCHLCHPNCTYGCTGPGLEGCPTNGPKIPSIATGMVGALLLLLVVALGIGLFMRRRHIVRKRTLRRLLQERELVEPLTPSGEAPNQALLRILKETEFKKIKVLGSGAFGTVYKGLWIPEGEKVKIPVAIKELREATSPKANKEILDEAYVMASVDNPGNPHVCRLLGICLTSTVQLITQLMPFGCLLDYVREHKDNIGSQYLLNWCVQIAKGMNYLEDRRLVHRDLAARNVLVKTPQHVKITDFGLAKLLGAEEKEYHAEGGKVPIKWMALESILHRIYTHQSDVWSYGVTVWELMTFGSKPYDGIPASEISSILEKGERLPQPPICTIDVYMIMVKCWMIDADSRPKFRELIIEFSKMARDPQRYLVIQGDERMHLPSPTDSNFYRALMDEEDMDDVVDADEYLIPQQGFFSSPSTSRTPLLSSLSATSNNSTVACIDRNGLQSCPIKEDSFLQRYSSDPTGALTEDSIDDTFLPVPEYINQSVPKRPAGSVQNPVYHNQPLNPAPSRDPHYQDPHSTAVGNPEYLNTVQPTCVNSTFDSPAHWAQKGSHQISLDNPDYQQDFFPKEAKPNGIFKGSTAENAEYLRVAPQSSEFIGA

Compound | GI50 [nM]
C=CC(=O)Nc1cc(Nc2ncc(Cl)c(Nc3ccccc3-c3ccn(C)n3)n2)c(OC)cc1N(C)[C@H]1CCN(C)C1 [Example 36, (S)-N-(5-((5-chloro-4-((2-(1-methyl-1H-pyrazol-3-yl)phenyl)amino)pyrimidin-2-yl)amino)-4-methoxy-2-(methyl(1-methylpyrrolidin-3-yl)amino)phenyl)acrylamide] | 25 to 50
C=CC(=O)Nc1cc(Nc2cc(Nc3ccccc3-c3ccn(C)n3)ncn2)c(OC)cc1N1CCOCC1 [Example 5, N-(4-methoxy-5-((6-((2-(1-methyl-1H-pyrazol-3-yl)phenyl)amino)pyrimidin-4-yl)amino)-2-morpholinophenyl)acrylamide] | 25 to 50
C=CC(=O)Nc1cc(Nc2ncc(C(=O)OC(C)C)c(Nc3ccccc3-n3cccn3)n2)c(OC)cc1N(C)CCN(C)C [Example 17, Isopropyl 4-((2-(1H-pyrazol-1-yl)phenyl)amino)-2-((5-acrylamido-4-((2-(dimethylamino)ethyl)(methyl)amino)-2-methoxyphenyl)amino)pyrimidin-5-carboxylate] | < 25
C=CC(=O)Nc1cc(Nc2cc(Nc3ccccc3-n3cccn3)ncn2)c(OC)cc1N1CC2COCC2C1 (stereo not shown) [Example 38, N-(5-((6-((2-(1H-pyrazol-1-yl)phenyl)amino)pyrimidin-4-yl)amino)-4-methoxy-2-(tetrahydro-1H-furo[3,4-c]pyrrol-5 (3H)-yl)phenyl)acrylamide] | 25 to 50
C=CC(=O)Nc1cc(Nc2cc(Nc3ccccc3-c3ccn(C)n3)ncn2)c(OC)cc1N(C)CCN(C)C [Example 1, N-(2-((2-(dimethylamino)ethyl)(methyl)amino)-4-methoxy-5-((6-((2-(1-methyl-1H-pyrazol-3-yl)phenyl)amino)pyrimidin-4-yl)amino)phenyl)acrylamide] | < 25
C=CC(=O)Nc1cc(Nc2cc(Nc3ccccc3-c3ccn(C)n3)ncn2)c(OC)cc1N(C)[C@H]1CCN(C)C1 [Example 9, (S)-N-(4-methoxy-2-(methyl(1-methylpyrrolidin-3-yl)amino)-5-((6-((2-(1-methyl-1H-pyrazol-3-yl)phenyl)amino)pyrimidin-4-yl)amino)phenyl)acrylamide] | 25 to 50
C=CC(=O)Nc1cc(Nc2ncc(C(=O)OC(C)C)c(Nc3ccccc3-c3ccn(C)n3)n2)c(OC)cc1N1CCOCC1 [Example 24, Isopropyl 2-((5-acrylamido-2-methoxy-4-morpholinophenyl)amino)-4-((2-(1-methyl-1H-pyrazol-3-yl)phenyl)amino)pyrimidin-5-carboxylate] | 25 to 50
C=CC(=O)Nc1cc(Nc2ncc(Cl)c(Nc3ccccc3-c3ccn(C)n3)n2)c(OC)cc1N1CC[C@@H](N(C)C)C1 [Example 34, (R)-N-(5-((5-chloro-4-((2-(1-methyl-1H-pyrazol-3-yl)phenyl)amino)pyrimidin-2-yl)amino)-2-(3-(dimethylamino)pyrrolidin-1-yl)-4-methoxyphenyl)acrylamide] | 25 to 50
C=CC(=O)Nc1cc(Nc2cc(Nc3ccccc3-c3ccn(C)n3)ncn2)c(OC)cc1N(C)[C@@H]1CCN(C)C1 [Example 8, (R)-N-(4-methoxy-2-(methyl(1-methylpyrrolidin-3-yl)amino)-5-((6-((2-(1-methyl-1H-pyrazol-3-yl)phenyl)amino)pyrimidin-4-yl)amino)phenyl)acrylamide] | 25 to 50
C=CC(=O)Nc1cc(Nc2ncc(C(=O)OCC)c(Nc3ccccc3-c3ccn(C)n3)n2)c(OC)cc1N(C)CCN(C)C [Example 20, ethyl 2-((5-acrylamido-4-((2-(dimethylamino)ethyl)(methyl)amino)-2-methoxyphenyl)amino)-4-((2-(1-methyl-1H-pyrazol-3-yl)phenyl)amino)pyrimidin-5-carboxylate] | 25 to 50
C=CC(=O)Nc1cc(Nc2cc(Nc3ccccc3-c3ccn(C)n3)ncn2)c(OC2CC2)cc1N(C)CCN(C)C [Example 12, N-(4-cyclopropoxy-2-((2-(dimethylamino)ethyl)(methyl)amino)-5-((6-((2-(1-methyl-1H-pyrazol-3-yl)phenyl)amino)pyrimidin-4-yl)amino)phenyl)acrylamide] | 25 to 50
C=CC(=O)Nc1cc(Nc2ncc(C(=O)OC)c(Nc3ccccc3-c3ccn(C)n3)n2)c(OC)cc1N(C)CCN(C)C [Example 18, methyl 2-((5-acrylamido-4-((2-(dimethylamino)ethyl)(methyl)amino)-2-methoxyphenyl)amino)-4-((2-(1-methyl-1H-pyrazol-3-yl)phenyl)amino)pyrimidin-5-carboxylate] | 25 to 50
C=CC(=O)Nc1cc(Nc2ncc(C(=O)OCC)c(Nc3ccccc3-n3cccn3)n2)c(OC)cc1N(C)CCN(C)C [Example 21, ethyl 4-((2-(1H-pyrazol-1-yl)phenyl)amino)-2-((5-acrylamido-4-((2-(dimethylamino)ethyl)(methyl)amino)-2-methoxyphenyl)amino)pyrimidin-5-carboxylate] | 25 to 50
C=CC(=O)Nc1cc(Nc2ncc(Cl)c(Nc3ccccc3-c3ccn(C)n3)n2)c(OC)cc1N1CC[C@H](N(C)C)C1 [Example 33, (S)-N-(5-((5-chloro-4-((2-(1-methyl-1H-pyrazol-3-yl)phenyl)amino)pyrimidin-2-yl)amino)-2-(3-(dimethylamino)pyrrolidin-1-yl)-4-methoxyphenyl)acrylamide] | 25 to 50
C=CC(=O)Nc1cc(Nc2ncc(C(=O)OC(C)C)c(Nc3ccccc3-c3ccn(C)n3)n2)c(OC)cc1N(C)[C@H]1CCN(C)C1 [Example 28, Isopropyl(S)-2-((5-acrylamido-2-methoxy-4-(methyl(1-methylpyrrolidin-3-yl)amino)phenyl)amino)-4-((2-(1-methyl-1H-pyrazol-3-yl)phenyl)amino)pyrimidin-5-carboxylate] | 25 to 50
C=CC(=O)Nc1cc(Nc2ncc(C(=O)OC(C)C)c(Nc3ccccc3-c3ccn(C)n3)n2)c(OC)cc1N1CCN(C)CC1 [Example 23, Isopropyl 2-((5-acrylamido-2-methoxy-4-(4-methylpiperizin-l-yl)phenyl)amino)-4-((2-(1-methyl-1H-pyrazol-3-yl)phenyl)amino)pyrimidin-5-carboxylate] | 25 to 50
C=CC(=O)Nc1cc(Nc2ncc(C(=O)OC)c(Nc3ccccc3-n3cccn3)n2)c(OC)cc1N(C)CCN(C)C [Example 19, methyl 4-((2-(1H-pyrazol-1-yl)phenyl)amino)-2-((5-acrylamido-4-((2-(dimethylamino)ethyl)(methyl)amino)-2-methoxyphenyl)amino)pyrimidin-5-carboxylate] | 25 to 50
C=CC(=O)Nc1cc(Nc2ncc(C(=O)OC(C)C)c(Nc3ccccc3-c3ccn(C)n3)n2)c(OC)cc1N1CC[C@H](N(C)C)C1 [Example 25, Isopropyl(S)-2-((5-acrylamido-4-(3-(dimethylamino)pyrrolidin-1-yl)-2-methoxyphenyl)amino)-4-((2-(1-methyl-1H-pyrazol-3-yl)phenyl)amino)pyrimidin-5-carboxylate] | 25 to 50
C=CC(=O)Nc1cc(Nc2ncc(C(=O)OC(C)C)c(Nc3ccccc3-c3ccn(C)n3)n2)c(OC)cc1N(C)CCN(C)C [Example 16, Isopropyl 2-((5-acrylamido-4-((2-(dimethylamino)ethyl)(methyl)amino)-2-methoxyphenyl)amino)-4-((2-(1-methyl-1H-pyrazol-3-yl)phenyl)amino)pyrimidin-5-carboxylate] | < 25
C=CC(=O)Nc1cc(Nc2ncc(Cl)c(Nc3ccccc3-c3ccn(C)n3)n2)c(OC)cc1N(C)CCN(C)C [Example 29, N-(5-((5-chloro-4-((2-(1-methyl-1H-pyrazol-3-yl)phenyl)amino)pyrimidin-2-yl)amino)-2-((2-(dimethylamino)ethyl)(methyl)amino)-4-methoxyphenyl)acrylamide] | < 25
C=CC(=O)Nc1cc(Nc2ncc(C(F)(F)F)c(Nc3ccccc3-c3ccn(C)n3)n2)c(OC)cc1N(C)CCN(C)C [Example 15, N-(2-((2-(dimethylamino)ethyl)(methyl)amino)-4-methoxy-5-((4-((2-(1-methyl-1H-pyrazol-3-yl)phenyl)amino)-5-(trifluoromethyl)pyrimidin-2-yl)amino)phenyl)acrylamide] | 25 to 50
C=CC(=O)Nc1cc(Nc2cc(Nc3ccccc3-n3cccn3)ncn2)c(OC)cc1N1C2CCC1COC2 [Example 39, N-(5-((6-((2-(1H-pyrazol-1-yl)phenyl)amino)pyrimidin-4-yl)amino)-2-(3-oxa-8-azabicyclo[3.2.1]octan-8-yl)-4-methoxyphenyl)acrylamide] | 25 to 50
C=CC(=O)Nc1cc(Nc2ncc(C(=O)OC(C)C)c(Nc3ccccc3-c3ccn(C)n3)n2)c(OC)cc1N(C)[C@@H]1CCN(C)C1 [Example 27, Isopropyl(R)-2-((5-acrylamido-2-methoxy-4-(methyl(1-methylpyrrolidin-3-yl)amino)phenyl)amino)-4-((2-(1-methyl-1H-pyrazol-3-yl)phenyl)amino)pyrimidin-5-carboxylate] | 25 to 50
C=CC(=O)Nc1cc(Nc2ncc(Cl)c(Nc3ccccc3-c3ccn(C)n3)n2)c(OC)cc1N1CCN(C)CC1 [Example 31, N-(5-((5-chloro-4-((2-(1-methyl-1H-pyrazol-3-yl)phenyl)amino)pyrimidin-2-yl)amino)-4-methoxy-2-(4-methylpiperizin-1-yl)phenyl)acrylamide] | 25 to 50
C=CC(=O)Nc1cc(Nc2cc(Nc3ccccc3-c3ccn(C)n3)ncn2)c(OC)cc1N1CC[C@H](N(C)C)C1 [Example 6, (S)-N-(2-(3-(dimethylamino)pyrrolidin-1-yl)-4-methoxy-5-((6-((2-(1-methyl-1H-pyrazol-3-yl)phenyl)amino)pyrimidin-4-yl)amino)phenyl)acrylamide] | 25 to 50

Reference: patent publication US20240166663A1, “NOVEL PYRIMIDINE DERIVATIVE SHOWING INHIBITION EFFECT ON GROWTH OF CANCER CELLS” (ONCOBIX CO., LTD., priority 2021, published 2024)
